Like-named read-outs stand apart in the source and are kept apart here.
Legend:
[1] = tested on: HaCaT keratinocytes; assay: Fluorescein diacetate cellular viability assay; format: cell-based; settings: Homo sapiens, light or radiation study, read after 24 h
Experimental: A fluorescein diacetate cellular viability assay measuring the viability of HaCaT keratinocytes in response to treatment with compound 92 without irradiation (no light) and when irradiated (Light) was carried out as follows:
HaCaT keratinocyte cells were seeded in two 96 well plates and incubated for 24 h at 37° C. 5% CO2. The incubating media was removed and compound 92 was added at a range of concentrations, along with a dimethyl sulfoxide (DMSO) control, before the cells were incubated for one hour at 37° C. 5% CO2, whereupon one plate was irradiated at 405 nm for 5 min (72 mW/cm^2). Both plates were then incubated at 37° C. 5% CO2 for 24 h. The media was removed, and cells were washed with 1× phosphate buffered saline (PBS), then fluorescein diacetate (FDA) was added, and the cells were incubated at RT, in the dark, for 10 min. The fluorescein diacetate stain was then removed, and cells were washed with 1× phosphate buffered saline. The plates were read at 485/520 nm to determine cell viability at differing treatment concentrations of compound 92 with and without light exposure.

[2] = tested on: HDAC enzymes; assay: Immunofluorescence imaging with anti-acetyl-H3 primary antibody (acetylated H3 histones); format: cell-based; settings: HaCaT keratinocytes, compound at 5 μM
Experimental: HaCaT or SCC-4 cells were seeded at 50,000 cells per well in sterile coverslip containing 6-well plates. The next day, cells were treated with the compound of interest for 30 minutes before “Light” treated cells were irradiated. The following day, cells were then fixed using 4% PFA, permeabilised using Triton X-100/Tween 20, blocked in BSA/goat serum (dependent on the antibodies) and stained with primary then secondary antibodies before coverslips were mounted on slides and imaged on a Zeiss LSCM 880.
Immunofluorescence imaging of HaCaT keratinocytes treated with compound 92 (5 μM) and ethanol (EtOH), and co-treated with an anti-acetyl-H3 primary antibody that detects the presence of acetylated H3 histones was carried out as follows:
[…] Cells were washed in phosphate buffered saline then fixed in 4% PFA. Cells were washed again with phosphate buffered saline before blocking and permeabilization with 0.3% triton 100-X/5% goat serum in phosphate buffered saline for 60 min. Cells were then washed with phosphate buffered saline and anti-acetyl-histone 3 antibody was added and incubated overnight at 4° C. Second antibody (Alexa-594 anti-rabbit) was added for 45 min before cells were washed again and mounted for imaging.
This delayed behaviour is indicative of an initial lag phase as compound 92 is enzymatically metabolised to the active form.

SMILES: COC(=O)/C=C/c1ccc(C#Cc2cnc(N3CCN(C(=O)CCCCCCC(=O)NOC(C)=O)CC3)s2)cn1 [compound 92, Methyl (2E)-3-(5-{2-[2-(4-{7-[(acetyloxy)carbamoyl]heptanoyl}piperazin-1-yl)-1,3-thiazol-5-yl]ethynyl}pyridin-2-yl)prop-2-enoate]
- IC50 ([1]; 1 h treatment, irradiated at 405 nm for 5 min (72 mW/cm^2), read-out: IC50 cell viability, light activation): 0.69 µM
- IC50 ([1]; no irradiation, read-out: IC50 cell viability, without light activation): 5.5 µM
- Acetylated H3 build-up (nuclear ring phenotype) after one hour ([2]; one hour): characteristic nuclear ring phenotype
- Acetylated H3 build-up (nuclear ring phenotype) after ten minutes ([2]; ten minutes): limited activity

— US12661405B2, “Protected HDAC (histone deacetylase) inhibitors” (LIGHTOX LIMITED, priority 2021, dated 2026)
